Results reported in the supplement of paper PMC4862054.

Tests used:
Assay in all cases: normalised viability (% of control), CellTiter-Blue; higher = more viable cells (about 100 = DMSO control)
Settings in all cases: incubation time: 72 h
[1] = system: MDA-MB-453
Description: (§1)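 DSRT, CellTiter-Blue viability, 72 h incubation. Signal is normalised to DMSO and benzethonium chloride controls. Value is the normalised response at dose 3.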

[2] = system: MDA-MB-231
Description: as §1

[3] = system: CAL-85-1
Description: as §1

[4] = system: MFM-223
Description: as §1

[5] = system: MDA-MB-436
Description: as §1

[6] = system: HDQ-P1
Description: as §1

[7] = system: HCC1599
Description: as §1

[8] = system: CAL-120
Description: as §1

[9] = system: SK-BR-3
Description: as §1

[10] = system: BT-549
Description: as §1

[11] = system: HCC1143
Description: as §1

[12] = system: CAL-51
Description: as §1

[13] = system: DU-4475
Description: as §1

[14] = system: Hs578T
Description: as §1

[15] = system: MDA-MB-468
Description: as §1

[16] = system: CAL-148
Description: as §1

[17] = system: BT-474
Description: as §1

[18] = system: HCC1937
Description: as §1

[19] = system: MDA-MB-231; remark: listed apart in the source
Procedure, shortened: (§2)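 Compound dissolved in 5 µl medium was pre-loaded into 384-well plates, and breast cancer cell lines in 20 µl suspension were seeded on top and incubated 72 h. After adding 2.5 µl CellTiter-Blue reagent for 2 h at 37 °C, fluorescence was read at 560/590 nm. Plates were normalised to vehicle (100) and a positive kill control (0), with Z'-factor quality control. Each value is normalised viability at a single listed concentration from the series.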

[20] = system: CAL-85-1; remark: listed apart in the source
Procedure, shortened: as §2

[21] = system: CAL-120; remark: listed apart in the source
Procedure, shortened: as §2

[22] = system: SK-BR-3; remark: listed apart in the source
Procedure, shortened: as §2

[23] = system: BT-549; remark: listed apart in the source
Procedure, shortened: as §2

[24] = system: HCC1143; remark: listed apart in the source
Procedure, shortened: as §2

[25] = system: DU-4475; remark: listed apart in the source
Procedure, shortened: as §2

[26] = system: Hs578T; remark: listed apart in the source
Procedure, shortened: as §2

[27] = system: MDA-MB-468; remark: listed apart in the source
Procedure, shortened: as §2

[28] = system: CAL-148; remark: listed apart in the source
Procedure, shortened: as §2

[29] = system: BT-474; remark: listed apart in the source
Procedure, shortened: as §2

COc1ccc(S(=O)(=O)Nc2cccnc2Nc2ccc(O)cc2)cc1 [ABT-751]
Settings | normalised viability [%]
[1], 10 nM | 87
[2], 100 nM | 91.4
[3], 10 nM | 88.8
[4], 100 nM | 91
[5], 100 nM | 108
[6], 10 nM | 106
[7], 100 nM | 102
[8], 100 nM | 93
[9], 100 nM | 71.6
[10], 100 nM | 89
[11], 100 nM | 87.2
[12], 10 nM | 113
[13], 10 nM | 109
[14], 100 nM | 88.1
[15], 100 nM | 101
[16], 10 nM | 90.4
[17], 100 nM | 112
[18], 100 nM | 92.4
[19], 10 nM | 89.3
[19], 1000 nM | 28.8
[19], 10000 nM | 14.7
[20], 3 nM | 94.1
[20], 30 nM | 86.2
[20], 100 nM | 88.9
[21], 10 nM | 81.7
[21], 1000 nM | 26.8
[21], 10000 nM | 21.6
[22], 10 nM | 93.3
[22], 1000 nM | 16.9
[22], 10000 nM | 15.6
[23], 10 nM | 94.1
[23], 1000 nM | 77.2
[23], 10000 nM | 13.6
[24], 10 nM | 83.8
[24], 1000 nM | 56.1
[24], 10000 nM | 29.1
[25], 3 nM | 88.8
[25], 30 nM | 95.2
[25], 100 nM | 89.9
[26], 10 nM | 98.9
[26], 1000 nM | 16.6
[26], 10000 nM | 14.4
[27], 10 nM | 105
[27], 1000 nM | 55.9
[27], 10000 nM | 34.7
[28], 3 nM | 91.9
[28], 30 nM | 89.2
[28], 100 nM | 86.7
[29], 10 nM | 112
[29], 1000 nM | 60.7
[29], 10000 nM | 54

Cc1cc(Nc2nc(N[C@@H](C)c3ncc(F)cn3)ncc2Cl)[nH]n1 [AZD1480]
Settings | normalised viability [%]
[1], 1 nM | 108
[2], 10 nM | 98.1
[3], 1 nM | 106
[4], 10 nM | 89.8
[5], 10 nM | 135
[6], 1 nM | 110
[7], 10 nM | 109
[8], 10 nM | 96.9
[9], 10 nM | 132
[10], 10 nM | 94.3
[11], 10 nM | 87.5
[12], 1 nM | 112
[13], 1 nM | 98.2
[14], 10 nM | 90.8
[15], 10 nM | 105
[16], 1 nM | 88.9
[17], 10 nM | 124
[18], 10 nM | 100
[19], 1 nM | 107
[19], 100 nM | 95.5
[19], 1000 nM | 85.7
[20], 0.3 nM | 102
[20], 3 nM | 91.4
[20], 10 nM | 96.4
[21], 1 nM | 87.9
[21], 100 nM | 90.6
[21], 1000 nM | 72.1
[22], 1 nM | 108
[22], 100 nM | 126
[22], 1000 nM | 102
[23], 1 nM | 91.7
[23], 100 nM | 108
[23], 1000 nM | 90.4
[24], 1 nM | 96
[24], 100 nM | 102
[24], 1000 nM | 71.8
[25], 0.3 nM | 102
[25], 3 nM | 104
[25], 10 nM | 95.8
[26], 1 nM | 145
[26], 100 nM | 102
[26], 1000 nM | 80.4
[27], 1 nM | 109
[27], 100 nM | 103
[27], 1000 nM | 84.9
[28], 0.3 nM | 93.8
[28], 3 nM | 97.4
[28], 10 nM | 99.3
[29], 1 nM | 137
[29], 100 nM | 108
[29], 1000 nM | 112

CNC(=O)c1ccccc1Sc1ccc2c(/C=C/c3ccccn3)n[nH]c2c1 [Axitinib]
Settings | normalised viability [%]
[1], 10 nM | 104
[2], 100 nM | 102
[3], 10 nM | 96
[4], 100 nM | 82.6
[5], 100 nM | 70
[6], 10 nM | 100
[7], 100 nM | 89.7
[8], 100 nM | 96.8
[9], 100 nM | 58.8
[10], 100 nM | 113
[11], 100 nM | 101
[12], 10 nM | 107
[13], 10 nM | 113
[14], 100 nM | 73.2
[15], 100 nM | 101
[16], 10 nM | 98
[17], 100 nM | 114
[18], 100 nM | 118
[19], 10 nM | 102
[19], 1000 nM | 88.7
[19], 10000 nM | 72.1
[20], 3 nM | 93
[20], 30 nM | 84
[20], 100 nM | 104
[21], 10 nM | 91.2
[21], 1000 nM | 94.7
[21], 10000 nM | 55.2
[22], 10 nM | 91
[22], 1000 nM | 88.9
[22], 10000 nM | 63.8
[23], 10 nM | 96.6
[23], 1000 nM | 92.6
[23], 10000 nM | 42.5
[24], 10 nM | 89.9
[24], 1000 nM | 96.2
[24], 10000 nM | 57.2
[25], 3 nM | 107
[25], 30 nM | 114
[25], 100 nM | 97
[26], 10 nM | 92.1
[26], 1000 nM | 93
[26], 10000 nM | 54.2
[27], 10 nM | 108
[27], 1000 nM | 99.4
[27], 10000 nM | 43.8
[28], 3 nM | 83
[28], 30 nM | 95.3
[28], 100 nM | 90.1
[29], 10 nM | 112
[29], 1000 nM | 105
[29], 10000 nM | 76.4
